Source: US20230322767A1, “ARYL SUBSTITUTED PYRROLO-PYRIDINONES AND THERAPEUTIC USES THEREOF” (Bayer Aktiengesellschaft, priority 2020, published 2023)
pIC50: −log10 of the molar value.

Experiments:
Format in all cases: biochemical
[1] = molecular target: wild-type Epidermal Growth Factor Receptor (EGFR) (Homo sapiens (Human), UniProt P00533); assay: WT-EGFR Kinase Assay (TR-FRET, 2 mM ATP); conditions: EGFR Wildtyp 2 mM ATP IC50 [mol/l] (median), median or individual measurements
Outline: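 GST-tagged human EGFR (R669–A1210, Sf9-expressed) preincubated 15 min at 22° C with compound in pH 7.0 Hepes/MgCl2 buffer, then reacted at 2 mM ATP with a biotinylated peptide substrate. Phosphorylation detected by TR-FRET (streptavidin-XL665, Tb-cryptate anti-phosphotyrosine) as the 665/620 nm emission ratio.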

[2] = molecular target: CSNK1D (Homo sapiens (Human), UniProt P48730); assay: CSNK1D Assay (ADP-Glo, 1 μM ATP); conditions: median, read-out: CSNK1D IC50 [mol/l] (median)
Outline: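 Enzyme preincubated with compound 15 min at 22° C in 50 mM HEPES pH 7.5 buffer with 10 mM MgCl2, 1 mM DTT; kinase reaction run at 1 μM ATP with biotinylated peptide substrate. ADP formed was detected by ADP-Glo luminescence as the measure of activity.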

[3] = molecular target: CSNK1A1 (Homo sapiens (Human), UniProt P48729); assay: CSNK1A1 Assay 2 (ADP-Glo, 1 μM ATP); conditions: median, read-out: CSNK1A1 Assay 2 IC50 [mol/l] (median)
Outline: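 Enzyme (~0.0375 ng/μL) preincubated 15 min at 22° C with compound in HEPES pH 7.5 buffer, then reacted with 1 μM ATP and biotin-Ahx-KRRRAL-pS-VASLPGL peptide. ADP product measured by ADP-Glo luminescence after 1 h ATP depletion and 1 h detection at 22° C.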

CSNK1D, sequence (P48730 whole entry): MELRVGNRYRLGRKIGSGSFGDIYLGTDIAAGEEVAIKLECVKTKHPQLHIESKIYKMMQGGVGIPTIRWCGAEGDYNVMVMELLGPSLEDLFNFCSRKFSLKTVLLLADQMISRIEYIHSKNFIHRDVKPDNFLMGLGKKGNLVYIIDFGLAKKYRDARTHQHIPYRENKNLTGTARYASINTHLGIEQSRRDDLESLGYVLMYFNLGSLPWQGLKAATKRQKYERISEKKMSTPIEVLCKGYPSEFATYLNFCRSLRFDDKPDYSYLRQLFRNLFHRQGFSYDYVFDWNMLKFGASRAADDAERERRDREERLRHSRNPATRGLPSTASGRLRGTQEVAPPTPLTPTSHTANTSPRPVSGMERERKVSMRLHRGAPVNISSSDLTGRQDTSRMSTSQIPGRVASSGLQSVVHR
wild-type Epidermal Growth Factor Receptor (EGFR), sequence (P00533 669-1210): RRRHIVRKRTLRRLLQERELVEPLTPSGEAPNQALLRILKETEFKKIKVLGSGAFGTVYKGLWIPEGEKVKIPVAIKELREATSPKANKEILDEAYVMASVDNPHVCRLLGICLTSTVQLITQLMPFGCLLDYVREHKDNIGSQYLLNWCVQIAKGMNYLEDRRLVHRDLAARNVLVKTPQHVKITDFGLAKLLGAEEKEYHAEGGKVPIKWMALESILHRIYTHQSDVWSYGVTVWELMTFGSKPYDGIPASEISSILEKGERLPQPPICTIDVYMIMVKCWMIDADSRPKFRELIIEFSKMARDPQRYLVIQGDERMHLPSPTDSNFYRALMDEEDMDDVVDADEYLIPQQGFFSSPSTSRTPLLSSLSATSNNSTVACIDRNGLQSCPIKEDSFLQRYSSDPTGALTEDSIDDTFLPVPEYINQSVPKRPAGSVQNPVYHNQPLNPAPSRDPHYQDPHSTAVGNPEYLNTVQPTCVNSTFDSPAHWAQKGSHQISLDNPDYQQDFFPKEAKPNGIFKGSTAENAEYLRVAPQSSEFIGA
CSNK1A1, sequence (P48729 whole entry): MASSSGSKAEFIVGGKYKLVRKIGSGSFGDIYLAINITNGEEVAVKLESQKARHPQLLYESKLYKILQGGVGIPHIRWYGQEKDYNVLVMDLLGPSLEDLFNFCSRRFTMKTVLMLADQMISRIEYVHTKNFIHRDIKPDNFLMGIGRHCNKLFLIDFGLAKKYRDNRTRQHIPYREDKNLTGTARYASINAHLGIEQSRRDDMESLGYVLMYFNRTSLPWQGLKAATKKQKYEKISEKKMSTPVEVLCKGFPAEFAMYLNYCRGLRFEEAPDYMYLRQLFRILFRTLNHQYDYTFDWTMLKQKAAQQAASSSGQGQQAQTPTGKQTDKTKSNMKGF

Compound	pIC50 [1]	pIC50 [2]	pIC50 [3]
Cn1cc(CC2CC2)c2[nH]c(-c3ccnc(NC(=O)C(CC(F)F)c4ccc(F)cc4)c3)c(-c3ccc(F)cc3)c2c1=O (racemic) [Example 65, N-{4-[7-(cyclopropylmethyl)-3-(4-fluorophenyl)-5-methyl-4-oxo-4,5-dihydro-1H-pyrrolo[3,2-c]pyridin-2-yl]pyridin-2-yl}-4,4-difluoro-2-(4-fluorophenyl)butanamide]	< 4.70	8.18	7.96
CN1CCc2[nH]c(-c3ccnc(NC(=O)C(CC(F)F)c4ccc(F)cc4)c3)c(-c3ccc(F)cc3F)c2C1=O (racemic) [Example 66, N-{4-[3-(2,4-difluorophenyl)-5-methyl-4-oxo-4,5,6,7-tetrahydro-1H-pyrrolo[3,2-c]pyridin-2-yl]pyridin-2-yl}-4,4-difluoro-2-(4-fluorophenyl)butanamide]	< 4.70	8.49	8.36
CC(C(=O)Nc1cc(-c2[nH]c3c(c2-c2ccc(F)cc2F)C(=O)N(C)CC3)ccn1)c1ccc(F)cc1 (racemic) [Example 69, N-{4-[3-(2,4-difluorophenyl)-5-methyl-4-oxo-4,5,6,7-tetrahydro-1H-pyrrolo[3,2-c]pyridin-2-yl]pyridin-2-yl}-2-(4-fluorophenyl)propanamide]	< 4.70	8.55	8.51
CC(C(=O)Nc1cc(-c2[nH]c3c(c2-c2ccccc2)C(=O)NCC3)ccn1)c1ccc(F)cc1 (racemic) [Example 74, 2-(4-fluorophenyl)-N-[4-(4-oxo-3-phenyl-4,5,6,7-tetrahydro-1H-pyrrolo[3,2-c]pyridin-2-yl)pyridin-2-yl]propanamide]	< 4.70	8.52	8.80
O=C1NCCc2[nH]c(-c3ccnc(NC(=O)C(CC(F)F)c4ccc(F)cc4)c3)c(-c3ccccc3)c21 (racemic) [Example 75, 4,4-difluoro-2-(4-fluorophenyl)-N-[4-(4-oxo-3-phenyl-4,5,6,7-tetrahydro-1H-pyrrolo[3,2-c]pyridin-2-yl)pyridin-2-yl]butanamide]	< 4.70	8.35	8.57
CN1C(=O)c2c([nH]c(-c3ccnc(NC(=O)C(CC(F)F)c4ccc(F)cc4)c3)c2-c2ccccc2)CC12CC2 (racemic) [Example 80, 4,4-difluoro-2-(4-fluorophenyl)-N-[4-(5′-methyl-4′-oxo-3′-phenyl-1′,4′,5′,7′-tetrahydrospiro-[cyclopropane-1,6′-pyrrolo[3,2-c]pyridin]-2′-yl)pyridin-2-yl]butanamide]	< 4.70	8.29	8.33
CN1C(=O)c2c([nH]c(-c3ccnc(NC(=O)C(CC(F)F)c4ccc(F)cc4)c3)c2-c2ccc(F)cc2)CC12CC2 (racemic) [Example 81, 4,4-difluoro-2-(4-fluorophenyl)-N-{4-[3′-(4-fluorophenyl)-5′-methyl-4′-oxo-1′,4′,5′,7′-tetrahydro-spiro[cyclopropane-1,6′-pyrrolo[3,2-c]pyridin]-2′-yl]pyridin-2-yl}butanamide]	< 4.70	8.37	8.34
Cc1cccc(-c2c(-c3ccnc(NC(=O)C(C)c4ccc(F)cc4)c3)[nH]c3c2C(=O)NC(C)(C)C3)c1 (racemic) [Example 88, N-{4-[6,6-dimethyl-3-(3-methylphenyl)-4-oxo-4,5,6,7-tetrahydro-1H-pyrrolo[3,2-c]pyridin-2-yl]pyridin-2-yl}-2-(4-fluorophenyl)propanamide]	< 4.70	7.96	8.07
CC(C(=O)Nc1cc(-c2[nH]c3c(c2-c2ccc(Cl)cc2)C(=O)NC(C)(C)C3)ccn1)c1ccc(F)cc1 (racemic) [Example 89, N-{4-[3-(4-chlorophenyl)-6,6-dimethyl-4-oxo-4,5,6,7-tetrahydro-1H-pyrrolo[3,2-c]pyridin-2-yl]pyridin-2-yl}-2-(4-fluorophenyl)propanamide]	< 4.70	8.37	8.17
Cc1ccc(-c2c(-c3ccnc(NC(=O)C(C)c4ccc(F)cc4)c3)[nH]c3c2C(=O)NC(C)(C)C3)cc1 (racemic) [Example 91, N-{4-[6,6-dimethyl-3-(4-methylphenyl)-4-oxo-4,5,6,7-tetrahydro-1H-pyrrolo[3,2-c]pyridin-2-yl]pyridin-2-yl}-2-(4-fluorophenyl)propanamide]	< 4.70	8.12	8.11
CC(C(=O)Nc1cc(-c2[nH]c3c(c2-c2ccc(F)cc2)C(=O)NC(C)(C)C3)ccn1)c1ccc(F)cc1 (racemic) [Example 94, 2-(4-fluorophenyl)-N-{4-[3-(4-fluorophenyl)-6,6-dimethyl-4-oxo-4,5,6,7-tetrahydro-1H-pyrrolo[3,2-c]pyridin-2-yl]pyridin-2-yl}propanamide]	< 4.70	8.49	8.52
CC(C(=O)Nc1cc(-c2[nH]c3c(c2-c2cccnc2)C(=O)NC(C)(C)C3)ccn1)c1ccc(F)cc1 (racemic) [Example 97, N-{4-[6,6-dimethyl-4-oxo-3-(pyridin-3-yl)-4,5,6,7-tetrahydro-1H-pyrrolo[3,2-c]pyridin-2-yl]pyridin-2-yl}-2-(4-fluorophenyl)propanamide]	< 4.70	7.85	8.09
CC(C(=O)Nc1cc(-c2[nH]c3ccn(C)c(=O)c3c2-c2ccc(F)cc2)ccn1)c1ccc(F)cc1 (racemic) [Example 100, 2-(4-fluorophenyl)-N-{4-[3-(4-fluorophenyl)-5-methyl-4-oxo-4,5-dihydro-1H-pyrrolo[3,2-c]pyridin-2-yl]pyridin-2-yl}propanamide]	< 4.70	8.07	8.23
CC(C(=O)Nc1cc(-c2[nH]c3ccn(C)c(=O)c3c2-c2ccccc2)ccn1)c1ccc(F)cc1 (racemic) [Example 103, 2-(4-fluorophenyl)-N-[4-(5-methyl-4-oxo-3-phenyl-4,5-dihydro-1H-pyrrolo[3,2-c]pyridin-2-yl)pyridin-2-yl]propanamide]	< 4.70	7.96	8.30
CC(C(=O)Nc1cc(-c2[nH]c3ccn(C)c(=O)c3c2-c2cccc(Cl)c2)ccn1)c1ccc(F)cc1 (racemic) [Example 106, N-{4-[3-(3-chlorophenyl)-5-methyl-4-oxo-4,5-dihydro-1H-pyrrolo[3,2-c]pyridin-2-yl]pyridin-2-yl}-2-(4-fluorophenyl)propanamide]	< 4.70	7.96	8.04
Cn1ccc2[nH]c(-c3ccnc(NC(=O)C(CC(F)F)c4ccc(F)cc4)c3)c(-c3ccc(F)cc3)c2c1=O (racemic) [Example 107, 4,4-difluoro-2-(4-fluorophenyl)-N-{4-[3-(4-fluorophenyl)-5-methyl-4-oxo-4,5-dihydro-1H-pyrrolo[3,2-c]pyridin-2-yl]pyridin-2-yl}butanamide]	< 4.70	8.36	8.46
CC1c2[nH]c(-c3ccnc(NC(=O)C(CC(F)F)c4ccc(F)cc4)c3)c(-c3ccccc3)c2C(=O)N(C)C1C (stereo not drawn) [Example 41, 4,4-difluoro-2-(4-fluorophenyl)-N-{4-[5,6,7-trimethyl-4-oxo-3-phenyl-4,5,6,7-tetrahydro-1H-pyrrolo[3,2-c]pyridin-2-yl]pyridin-2-yl}butanamide]		8.21	8.24
CC1(C)CNC(=O)c2c1[nH]c(-c1ccnc(NC(=O)Cc3ccc(F)cc3)c1)c2-c1ccccc1 [Example 42, N-[4-(7,7-dimethyl-4-oxo-3-phenyl-4,5,6,7-tetrahydro-1H-pyrrolo[3,2-c]pyridin-2-yl)pyridin-2-yl]-2-(4-fluorophenyl)acetamide]		8.68	8.92
Cn1cc(CC2CC2)c2[nH]c(-c3ccnc(NC(=O)Cc4ccc(F)cc4)c3)c(-c3ccccc3)c2c1=O [Example 56, N-{4-[7-(cyclopropylmethyl)-5-methyl-4-oxo-3-phenyl-4,5-dihydro-1H-pyrrolo[3,2-c]pyridin-2-yl]pyridin-2-yl}-2-(4-fluorophenyl)acetamide]		8.32	8.36
CC(C(=O)Nc1cc(-c2[nH]c3c(c2-c2ccccc2)C(=O)N(C)CC3CC2CC2)ccn1)c1ccc(F)cc1 (stereo not drawn) [Example 57, N-{4-[7-(cyclopropylmethyl)-5-methyl-4-oxo-3-phenyl-4,5,6,7-tetrahydro-1H-pyrrolo[3,2-c]pyridin-2-yl]pyridin-2-yl}-2-(4-fluorophenyl)propanamide]		8.54	8.35
CN1CC(CC2CC2)c2[nH]c(-c3ccnc(NC(=O)C(CC(F)F)c4ccc(F)cc4)c3)c(-c3ccccc3)c2C1=O (stereo not drawn) [Example 59, N-{4-[7-(cyclopropylmethyl)-5-methyl-4-oxo-3-phenyl-4,5,6,7-tetrahydro-1H-pyrrolo[3,2-c]pyridin-2-yl]pyridin-2-yl}-4,4-difluoro-2-(4-fluorophenyl)butanamide]		8.44	8.31
CC(C(=O)Nc1cc(-c2[nH]c3c(c2-c2ccc(F)cc2)C(=O)N(C)CC3CC2CC2)ccn1)c1ccc(F)cc1 (stereo not drawn) [Example 62, N-{4-[7-(cyclopropylmethyl)-3-(4-fluorophenyl)-5-methyl-4-oxo-4,5,6,7-tetrahydro-1H-pyrrolo[3,2-c]pyridin-2-yl]pyridin-2-yl}-2-(4-fluorophenyl)propanamide]		8.40	8.12
